Measured values taken from patent US11840686B2, “Modulation of prekallikrein (PKK) expression” (Ionis Pharmaceuticals, Inc., priority 2013, dated 2023).
Strand notation (5' to 3'): a small letter for the sugar, then the base; units joined by * are phosphorothioate-linked, units joined directly phosphodiester-linked; [ ] holds rarer units or linkages, { } end groups; capitals alone tell only the bases. e = 2'-O-(2-methoxyethyl) (MOE); [5mC] = 5-methylcytosine; d = 2'-deoxy (DNA)

Experiments:
human PKK mRNA [1] = test: Antisense inhibition of human PKK mRNA in HepaRG cells, 5,000 nM (Example 2); type: cell-based; settings: Table 13; human PKK mRNA in HepaRG cells; 5-10-5 gapmers
In short: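 qRT-PCR (RTS3454) read-out, RIBOGREEN-normalized; % inhibition vs untreated cells. HepaRG, 20,000 cells/well, electroporation, 5,000 nM ASO, ~24 h.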

human PKK mRNA [2] = test: Dose-dependent antisense inhibition of human PKK in HepaRG cells, 0.19-5.00 uM (Example 5); type: cell-based
In short: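 PKK mRNA knockdown was measured by real-time PCR (primer probe set RTS3454) about 16 h after electroporating 20,000 HepaRG cells per well with oligonucleotide at four doses from 0.19 to 5.00 μM. Levels were adjusted to RIBOGREEN-measured total RNA, and IC50 values were calculated.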

[3] = HepaRG cells, electroporation, approximately 16 hours, Table 41
[4] = 4 point dose response, HepaRG cells, Table 41
[5] = Table 34, HepaRG, electroporation, ~16 h
[6] = Table 34, PKK mRNA, HepaRG, electroporation, ~16 h
[7] = HepaRG cells, electroporation, approximately 16 hours, Table 37
[8] = HepaRG cells, electroporation, approximately 16 hours, Table 36
[9] = HepaRG cells, electroporation, approximately 16 hours, Table 38
[10] = HepaRG cells, electroporation, approximately 16 hours, Table 39

546827 (e[5mC]*eA*eG*eT*eA*dT*d[5mC]*dA*d[5mC]*dT*dG*dT*dA*d[5mC]*dT*eA*eG*eT*eT*eT; antisense) [compound 546827]
% inhibition (human PKK mRNA [1]): 98% | percent inhibition of PKK at 5.00 μM (human PKK mRNA [2]; [3]): 96% | percent inhibition of PKK at 0.19 0μM (human PKK mRNA [2]; [3]): 23% | percent inhibition of PKK at 0.56 0μM (human PKK mRNA [2]; [3]): 74% | percent inhibition of PKK at 1.67 1μM (human PKK mRNA [2]; [3]): 98% | IC50 (human PKK mRNA [2]; [4]): 400 nM | percent inhibition of PKK at 0.19 μM (human PKK mRNA [2]; [5]): 32% | percent inhibition of PKK at 0.56 μM (human PKK mRNA [2]; [5]): 70% | percent inhibition of PKK at 1.67 μM (human PKK mRNA [2]; [5]): 84% | percent inhibition of PKK at 5.00 μM (human PKK mRNA [2]; [5]): 90% | IC50 (human PKK mRNA [2]; [6]): 300 nM

546829 (eA*eA*e[5mC]*eA*eG*dT*dA*dT*d[5mC]*dA*d[5mC]*dT*dG*dT*dA*e[5mC]*eT*eA*eG*eT; antisense) [compound 546829]
% inhibition (human PKK mRNA [1]): 94% | percent inhibition of PKK at 0.19 μM (human PKK mRNA [2]; [5]): 3% | percent inhibition of PKK at 0.56 μM (human PKK mRNA [2]; [5]): 30% | percent inhibition of PKK at 1.67 μM (human PKK mRNA [2]; [5]): 73% | percent inhibition of PKK at 5.00 μM (human PKK mRNA [2]; [5]): 88% | IC50 (human PKK mRNA [2]; [6]): 1000 nM

546832 (e[5mC]*eT*e[5mC]*eT*eA*dA*d[5mC]*dA*dG*dT*dA*dT*d[5mC]*dA*d[5mC]*eT*eG*eT*eA*e[5mC]; antisense) [compound 546832]
% inhibition (human PKK mRNA [1]): 88% | percent inhibition of PKK at 0.19 μM (human PKK mRNA [2]; [7]): 19% | percent inhibition of PKK at 0.56 μM (human PKK mRNA [2]; [7]): 38% | percent inhibition of PKK at 1.67 μM (human PKK mRNA [2]; [7]): 70% | percent inhibition of PKK at 5.00 μM (human PKK mRNA [2]; [7]): 95% | IC50 (human PKK mRNA [2]; 4 point dose response, HepaRG cells, Table 37): 800 nM | percent inhibition of PKK mRNA, 0.19 μM (human PKK mRNA [2]; HepaRG cells, 0.19 μM antisense oligonucleotide): 36% | percent inhibition of PKK mRNA, 0.56 μM (human PKK mRNA [2]; HepaRG cells, 0.56 μM antisense oligonucleotide): 49% | percent inhibition of PKK mRNA, 1.67 μM (human PKK mRNA [2]; HepaRG cells, 1.67 μM antisense oligonucleotide): 85% | percent inhibition of PKK mRNA, 5.00 μM (human PKK mRNA [2]; HepaRG cells, 5.00 μM antisense oligonucleotide): 97% | IC50 (human PKK mRNA [2]; HepaRG cells, 0.19-5.00 μM): 400 nM

546833 (eA*e[5mC]*eT*e[5mC]*eT*dA*dA*d[5mC]*dA*dG*dT*dA*dT*d[5mC]*dA*e[5mC]*eT*eG*eT*eA; antisense) [compound 546833]
% inhibition (human PKK mRNA [1]): 90% | percent inhibition of PKK at 0.19 μM (human PKK mRNA [2]; [8]): 8% | percent inhibition of PKK at 0.56 μM (human PKK mRNA [2]; [8]): 33% | percent inhibition of PKK at 1.67 μM (human PKK mRNA [2]; [8]): 74% | percent inhibition of PKK at 5.00 μM (human PKK mRNA [2]; [8]): 94% | IC50 (human PKK mRNA [2]; 4 point dose response, HepaRG cells, Table 36): 900 nM

546834 (eA*eA*e[5mC]*eT*e[5mC]*dT*dA*dA*d[5mC]*dA*dG*dT*dA*dT*d[5mC]*eA*e[5mC]*eT*eG*eT; antisense) [compound 546834]
% inhibition (human PKK mRNA [1]): 86% | percent inhibition of PKK at 0.19 μM (human PKK mRNA [2]; [9]): 1% | percent inhibition of PKK at 0.56 μM (human PKK mRNA [2]; [9]): 0% | percent inhibition of PKK at 1.67 μM (human PKK mRNA [2]; [9]): 30% | percent inhibition of PKK at 5.00 μM (human PKK mRNA [2]; [9]): 83% | IC50 (human PKK mRNA [2]; 4 point dose response, HepaRG cells, Table 38): 2300 nM

546835 (eT*eA*eA*e[5mC]*eT*d[5mC]*dT*dA*dA*d[5mC]*dA*dG*dT*dA*dT*e[5mC]*eA*e[5mC]*eT*eG; antisense) [compound 546835]
% inhibition (human PKK mRNA [1]): 86% | percent inhibition of PKK at 0.19 μM (human PKK mRNA [2]; [10]): 9% | percent inhibition of PKK at 0.56 μM (human PKK mRNA [2]; [10]): 35% | percent inhibition of PKK at 1.67 μM (human PKK mRNA [2]; [10]): 68% | percent inhibition of PKK at 5.00 μM (human PKK mRNA [2]; [10]): 93% | IC50 (human PKK mRNA [2]; 4 point dose response, HepaRG cells, Table 39): 900 nM

546846 (e[5mC]*eT*eG*eT*e[5mC]*d[5mC]*dT*dA*dT*dA*dT*d[5mC]*dA*d[5mC]*dT*eG*eT*e[5mC]*e[5mC]*eT; antisense) [compound 546846]
% inhibition (human PKK mRNA [1]): 95% | percent inhibition of PKK at 0.19 0μM (human PKK mRNA [2]; [3]): 26% | percent inhibition of PKK at 0.56 0μM (human PKK mRNA [2]; [3]): 49% | percent inhibition of PKK at 1.67 1μM (human PKK mRNA [2]; [3]): 85% | IC50 (human PKK mRNA [2]; [4]): 500 nM | percent inhibition of PKK at 0.19 μM (human PKK mRNA [2]; [5]): 36% | percent inhibition of PKK at 0.56 μM (human PKK mRNA [2]; [5]): 45% | percent inhibition of PKK at 1.67 μM (human PKK mRNA [2]; [5]): 71% | percent inhibition of PKK at 5.00 μM (human PKK mRNA [2]; [5]): 82% | IC50 (human PKK mRNA [2]; [6]): 500 nM
